Results: US8865653B2, “Method of treatment for immunogenic treatment resistant cancer” (Institut Gustave Roussy, priority 2010, dated 2014)

Columns and labels:
[1] = tested on: U2OS cells; assay: HMGB1 release ELISA; assay type: cell-based, human; conditions: 24 h, dose dependent fashion, nanomolar range
Procedure: U2OS cells were seeded in 6 well plates 24 h before the experiment. The medium was changed to fresh DMEM before the treatment was applied. Supernatants were collected at 24 h post treatment, dying tumor cells were removed by centrifugation and supernatants were collected and shock frozen in liquid nitrogen. Quantification of HMGB1 in the collected supernatants was performed by enzyme-linked immunosorbent assay according to the manufacturer's instructions.

[2] = tested on: U2OS cells; assay: CRT exposure by anti-CRT surface staining and FACS (Example 4); assay type: cell-based, human; conditions: for CRT exposure: dose dependent fashion, nanomolar range; for effect of antioxidant on CRT exposure upon Digoxin and Digitoxin treatment: NAC and GSH pretreated U2OS cells
Procedure: (D) Cardiac glycosides at 1 μM have been analysed for CRT exposure by means of anti-CRT surface staining and FACS quantification.
(F) U2OS cells treated with the indicated doses of Digoxin and Digitoxin were analyzed for CRT exposure by means of FACS quantified surface staining.

[3] = tested on: U2OS cells; assay: ATP release ENLITEN assay (Example 4); assay type: cell-based, human; conditions: 15 h, dose dependent fashion, nanomolar range
Procedure: (H) ATP release was quantified by ENLITE 15 h after treatment in the supernatant of cells.
(§1) After cell death induction, extracellular ATP was measured by luciferin-based ENLITEN ATP Assay (Promega, Madison, USA) following the manufacturer's instructions. Intracellular ATP was measured using an ATP Assay kit (Calbiochem, Darmstadt, Germany) based on luciferin-luciferase conversion following the manufacturer's instructions. For assessment of the chemoluminescent signal, the plates were read in a Fluostar luminometer (BMG Labtech).

[4] = tested on: γδ T cells; assay: DC-tumor mixed lymphocyte cultures (IL-1β, IL-17A ELISA); assay type: cell-based, mouse; conditions: 20 μg/ml IL-1RA
Procedure: (D) DX-treated MCA205 loaded DC/γδ T cell cross-talk was also performed in the presence of 20 μg/ml IL-1RA (Amgen) or anti-IL-23 or IL-23R neutralizing antibodies or 10 μg/ml IL-18BP or 20 μM CH-223191. IL-1β and IL-17A release was measured at 48 hrs in ELISA.
DC were propagated in Iscoves's medium (Sigma Aldrich) supplemented with J558 supernatant, 100 UI/ml Penicillin, 100 μg/ml Streptomycin, 2 mM L-glutamine, 50 μM 2-mercaptoethanol (Sigma), 10% heat-inactivated and filtered, 10% FCS and 40 ng/ml GM-CSF. DC were used between day 8 and 12 when the proportion of CD11c/MHC class II+ cells was >80%. In mixed cocultures, DC were seeded at 10^5/100 μl/well in U bottom 96 well plates. Tumor cells were treated with 25 μM DX or 2 μM MTX for 16 hrs, washed in PBS and added into these wells at 7.5×10^5/100 μl/well. 2×10^4/50 μl γδ T cells were added into the wells 12 hrs later. Supernatant was collected 48 hrs later.

[5] = tested on: U2OS cells; assay: US Drug library screen: CRT-GFP, HMGB1-GFP, quinacrine; conditions: 1 μM, 4 h / 24 h / 16 h
[6] = tested on: MCA205 cells; conditions: Martins I et al, Oncogene 2010; cited from earlier work
[7] = tested on: LN resident γδ T cells; assay: Cytokine stimulation of LN-derived γδ T cells (IL-17); assay type: cell-based, mouse
Procedure: (A-B) Cocultures of naïve LNs derived γδ T (A-B) or TCR δ^−T (A) cells in the presence of recombinant mouse cytokines (1 μg/ml IL-1β or/and IL-23, 5 μg/ml TGF-β, 10 μg/ml IL-6) (A) with or without TCR cross-linking with anti-CD3ε mAb pre-coated plates (5 μg/ml, Clone 145-2C11) (B).
Naïve C57Bl/6 mice aged between 8-10 weeks were sacrificed and the skin-draining lymph nodes (LNs) including inguinal, popliteal, superficial cervical, axillary and brachial LNs were collected. LNs were squeezed with tweezers gently in digesting buffer, kept at 37° C. for 20 min and then pass through […] cell strainer to get single cell suspension. Dead cells were removed using Dead Cell Removal Kit (Miltenyi Biotec) before purifying γδ T cells with TCRγ/δ^+ T Cell Isolation Kit (Miltenyi Biotec). An autoMACS™ Separator was used with the recommended programs. Purity of this isolation normally reached 95%. The TCR δ^− CD3^+ cells fraction was also collected from the final separation step and was called ‘non γδ T’ cells for some experiments. Day 2 after DX or PBS treatment, 2.5×10^5 cells were injected directly into the tumor with insulin syringes in adoptive transfer setting.

[8] = tested on: breast cancer; assay: Retrospective clinical study, digoxin during chemotherapy; assay type: in vivo, human
Procedure: (D) D1: Overall survival of 150 breast cancer patients. 50 digoxin cotreated patients are opposed by 100 non digoxin treated controls.
We retrospectively constructed a patient database using data obtained from Institut Gustave Roussy. The patients were divided into the digoxin receiving and into the control group. For each digoxin receiving patient two control patients with identical tumor grade and chemotherapeutic treatment have been chosen. All digoxin receiving patients were treated with digoxin while receiving chemotherapy. Age at diagnosis, pathological tumor size, lymph node involvement, tumor grade, hormone receptors, endocrine treatments, occurrence of events and follow-up were extracted from medical files and recorded in the database. After generation of the patient database statistical analyses were performed in a blinded fashion. Survival rates were estimated using the Kaplan-Meier method.

[9] = tested on: MCA205 cells; assay: In vivo anti-tumor vaccination with MitoC / Digoxin treated MCA205 cells; design: species or system mice; conditions: for vaccination with cells treated with digoxin alone: single treatment
[10] = tested on: eIF2α; assay: Immunoblotting of eIF2α / PERK phosphorylation; assay type: cell-based
Excerpt: (E) The phosphorylation status of eIF2α has been assessed by immunoblotting against the phosphoneoepitope Ser51 of eIF2α by means of a monoclonal antibody. A polyclonal antibody has been used to visualize whole eIF2α protein levels.

[11] = tested on: U2OS cells; assay type: cell-based
Procedure: The data is depicted as representative images (A) and (B) normalized Bax-GFP granularity values.
The data represents mean±s.e.m. of quadruplicates from a representative experiment. […] 16 h after treatment, cell death was monitored by simultaneous staining with 3,3 dihexyloxacarbocyanine iodide (DiOC6(3)) and propidium iodide (PI), and the percentage of dying (DiOC6(3)^low PI^−, open bars) and dead (DiOC6(3)^low PI^+, closed bars) cells was determined by cytofluorometry.
Cell death was quantified by cytofluorometric analysis using a FACS Vantage (Becton Dickinson, Mountain View, USA) as described previously (REF). Thus, cells were stained with 40 nM 3,3 dihexyloxacarbocyanine iodide (DiOC6(3); Molecular Probes, Eugene, Oreg., USA) for 30 min at 37° C. and concomitantly with 1 μg/ml propidium iodide (PI; Sigma Aldrich) for 30 min at 37° C. to determine the mitochondrial transmembrane potential. Data were statistically evaluated using CellQuest Pro software (Becton Dickinson, Mountain View, USA).

[12] = tested on: U2OS cells; assay: Analysis of surface exposed CRT (HaloTag ligand, anti-CRT immune staining)
[13] = tested on: U2OS cells; assay: ATP release assays (quinacrine, luciferin-based); assay type: cell-based, human; conditions: 16 h post-treatment, intracellular and extracellular ATP
Procedure: In short, cells were labeled with 1 μM quinacrine in Krebs-Ringer solution (125 mM NaCl, 5 mM KCl, 1 mM MgSO4, 0.7 mM KH2PO4, 2 mM CaCl2, 6 mM glucose and 25 mM Hepes, pH 7.4) for 30 min at 37° C.
After incubation in quinacrine solution (as described above), cells were rinsed and resuspended in PBS containing 1 μg/ml PI. The samples were analyzed by means of a FACS Vantage (Becton Dickinson) and the data was statistically evaluated using the CellQuest Pro software (BD Biosciences).
as §1

[14] = tested on: U2OS cells stably expressing CRT-GFP; assay: CRT-GFP redistribution (granularity, nuclear shape) by automated microscopy; ICCB library screen; assay type: cell-based, human
Procedure: The data is depicted as mean±s.e.m. of quadruplicates from a representative experiment. (C) Immunofluorescene was conducted on CRT-GFP expressing cells by means of staining with anti-CRT antibody and subsequent confocal image acquisition. (D) CRT has been cloned in frame n-terminal to a HaloTag® sequence followed by a KDEL ER retention signal. (E) The impermeable HaloTag® ligand forms covalent bonds exclusively with surface exposed HaloTag®-CRT fusion protein, whereas intracellular HaloTag®-CRT remains undetected.
Compounds from the ICCB known bioactive compounds library have been tested for their capacity to induce CRT-exposure. […] The cells were incubated for 4 h and were acquired by means of automated microscopy. The data is depicted as dot plots and representative images (B).
After washing with PBS 4 viewfields per well were acquired by means of a BD pathway 855 automated microscope.

[15] = tested on: MCA205 cells; assay: In vivo anti-tumor vaccination with treated MCA205 cells (Example 3); conditions: s.c. injection, rechallenge with live tumor cells
Procedure: (F) MCA205 cells have been used for tumor vaccination in vivo. […] The mice have been rechallenged after 6 days with living cells and the tumor growth is depicted in the survival plot (n=10).
Tumor growth was evaluated for at least 50 days.

C[C@H]1O[C@@H](O[C@H]2[C@@H](O)C[C@H](O[C@H]3[C@@H](O)C[C@H](O[C@H]4CC[C@@]5(C)[C@H](CC[C@@H]6[C@@H]5CC[C@]5(C)[C@@H](C7=CC(=O)OC7)CC[C@]65O)C4)O[C@@H]3C)O[C@@H]2C)C[C@H](O)[C@@H]1O [digitoxin]
HMGB1 release [1]: HMGB1 release | CRT exposure [2]: induce CRT exposure | ATP release [3]: ATP release

N[C@@H](CCC(=O)N[C@@H](CS)C(=O)NCC(=O)O)C(=O)O [GSH]
effect of antioxidant on CRT exposure upon Digoxin and Digitoxin treatment [2]: significantly diminished CRT exposure

CC(=O)N[C@@H](CS)C(=O)O [NAC]
effect of antioxidant on CRT exposure upon Digoxin and Digitoxin treatment [2]: significantly diminished CRT exposure

IL-1RA: IL-1R1/IL-1β antagonist (Amgen)
IL-1β production in DC/γδ T cell co-culture [4]: not modified | DC/γδ T cell cross-talk (IL-17 production) in the presence of dying cells ([4]; DX-treated MCA205 loaded DC, 48 hrs): entirely abrogated the DC/γδ T cell cross-talk

COc1cccc2c1C(=O)c1c(O)c3c(c(O)c1C2=O)C[C@@](O)(C(=O)CO)C[C@@H]3O[C@H]1C[C@H](N)[C@@H](O)[C@H](C)O1 [epirubicin]
rank in screen for exposing CRT and emitting HMGB1 and ATP [5]: most potent in exposing CRT, and emitting HMGB1 and ATP

tunicamycin
immunogenic cell death when combined with cisplatin [6]: could induce immunogenic cell death when combined with cisplatin

TGF-β
IL-17 production by LN-resident γδ T cells in response to recombinant cytokines [7]: failed to produce IL-17

C[C@H]1O[C@@H](O[C@H]2[C@@H](O)C[C@H](O[C@H]3[C@@H](O)C[C@H](O[C@H]4CC[C@@]5(C)[C@H](CC[C@@H]6[C@@H]5C[C@@H](O)[C@]5(C)[C@@H](C7=CC(=O)OC7)CC[C@]65O)C4)O[C@@H]3C)O[C@@H]2C)C[C@H](O)[C@@H]1O [digoxin]
HMGB1 release [1]: HMGB1 release | CRT exposure [2]: induce CRT exposure | overall survival effect of digoxin, anthracyclin based chemotherapy subgroup ([8]; 20 digoxin cotreated vs 40 controls): completely disappears | overall survival of patients that received digoxin during chemotherapy ([8]; 50 digoxin cotreated vs 100 controls): increased overall survival | vaccinating effect, MCA cells cotreated with digoxin and MitoC ([9]; 20 μM MitoC with 30 μM Digoxin O/N, immunocompetent mice, rechallenge after 6 days): kept living cells of the same kind from forming a tumor | vaccination with cells treated with digoxin alone [9]: led to tumor formation at the vaccination site | vaccination with cells treated with digoxin alone ([9]; listed as Digoxin): did not preclude the living cells from forming a tumor after rechallenge | ATP release [3]: ATP release

[NH2][Pt]([NH2])([Cl])[Cl] [CDDP, cisplatin]
eIF2α phosphorylation on serine 51 ([10]; phospho-neoepitope-specific antibody): unable to activate | activating phosphorylation of PERK ([10]; shortly after treatment): not CDDP | IC50 ([11]; short-term experiments, loss of the mitochondrial transmembrane potential ΔΨm, read-out: IC50, imminent cell death): ~150 µM | mitochondrial perturbations (ΔΨm dissipation, Bax-GFP relocation) ([11]; used at their IC50): induced similar mitochondrial perturbations | surface exposure of CRT-HaloTag ([12]; cell-impermeable HaloTag ligand, microscopy and cytofluorometry): failed to induce the surface exposure | surface immunofluorescence staining of CRT ([12]; non-permeabilized CRT-GFP cells): no immunodetectable CRT was found on the surface | ATP release [13]: induced ATP release | CRT-GFP granularity (relocation to peripheral granular distribution) ([14]; 1 μM MTX, 150 μM CDDP, 300 μM OXP): not after treatment with CDDP | chromatin condensation (nuclear apoptosis) ([14]; as efficiently as MTX or OXP): able to induce chromatin condensation | protective anticancer immune response after vaccination with drug-treated MCA205 cells [15]: inefficient in inducing a protective anticancer immune response

B1: IL-6: recombinant mouse cytokine (protein, UniProt P08505 25-211, looked up)
Interleukin-6: FPTSQVRRGDFTEDTTPNRPVYTTSQVGGLITHVLWEIVEMRKELCNGNSDCMNNDDALAENNLKLPEIQRNDGCYQTGYNQEICLLKISSGLLEYHSYLEYMKNNLKDNKKDKARVLQRDTETLIHIFNQEVKDLHKIVLPTPISNALLTDKLESQKEWLRTKTIQFILKSLEEFLKVTLRSTRQT
IL-17 production by LN-resident γδ T cells in response to recombinant cytokines [7]: failed to produce IL-17
